According to US9540702B2, “Stabilization of enzymes with stable coenzymes” (Roche Diabetes Care, Inc., priority 2009, dated 2017):

What was measured:
[1] = target: T1, glucose dehydrogenase (GlucDH) (Bacillus subtilis, UniProt P12310); test: Reaction kinetics, function curve and dry blank value of GlucDH/coenzyme formulations after warm, humid storage; format: biochemical
Procedure: (§1) carbaNAD (FIG. 1A) or NAD were added to the glucose-specific GlucDH. These formulations were each applied to Pokalon foils (Lonza) and, after drying, stored under warm and humid conditions (32° C., 85% relative air humidity). Subsequently, the reaction kinetics and the function curve were determined at regular intervals. In parallel at each of the measurement times a cNAD/NAD analysis and a determination of the residual activity of the enzyme were carried out.
However, a significant difference in the kinetics curves can be seen after 5 weeks.
There is also a considerable difference in the blank values (dry blank value before application of a blood sample) as shown in FIG. 3.
The different stability of glucose dehydrogenase in the presence of NAD or cNAD is also evident from a comparison of FIGS. 4 and 5. […] In this connection it is clear that the function of the enzyme is only slightly changed at high glucose concentrations over the entire period and approximately corresponds after 24 weeks to the value obtained after 5 weeks.

[2] = target: GlucDH_E96G_E170K (GlucDH-mut1) (Bacillus subtilis, UniProt P12310, A229V/A236S/E170K/E96G/Q252K); test: Residual activity of GlucDH mutant 1 after storage with coenzyme; format: biochemical; settings: 24 weeks at 32° C. and 85% relative air humidity
Procedure: as §1
(§2) If a mutant is used instead of the wild-type enzyme (from Bacillus subtilis), it is possible to further increase the residual activity of GlucDH. After 24 weeks storage at 32° C. and 85% relative air humidity in the presence of cNAD, the residual activity of a mutant GlucDH_E96G_E170K with the amino acid substitutions glutamic acid→glycine at position 96 and glutamic acid→lysine at position 170 (GlucDH-mut1) of the wild-type enzyme is about 70%, whereas the residual activity of a mutant GlucDH_E170K_K252L with the amino acid substitutions glutamic acid→lysine at position 170 and lysine→leucine at position 252 (GlucDH-mut2) is about 50% (FIG. 8).

[3] = target: GlucDH_E170K_K252L (GlucDH-mut2) (Bacillus subtilis, UniProt P12310, A229V/A236S/E170K/Q252L); test: Residual activity of GlucDH mutant 2 after storage with coenzyme; format: biochemical; settings: 24 weeks at 32° C. and 85% relative air humidity
Procedure: as §1, §2

[4] = target: T1, glucose dehydrogenase (GlucDH); test: Stability of glucose dehydrogenase with coenzyme in a liquid phase at 50° C.; format: biochemical; settings: 10 mg/ml GlucDH, 12 mg/ml coenzyme, pH 8.5
Procedure: FIGS. 9A and 9B are graphical illustrations of the stability of glucose dehydrogenase in the presence of NAD or cNAD in a liquid phase at 50° C. for a period of 4 days (FIG. 9A) or 14 days (FIG. 9B) with test conditions of 10 mg/ml GlucDH; 12 mg/ml NAD or cNAD; buffer: 0.1 M Tris, 1.2 M NaCl, pH 8.5; temperature 50° C.
After 95 hours at 50° C. the residual activity of glucose dehydrogenase in the presence of the native coenzyme NAD is […], whereas the residual activity of GlucDH in the presence of the artificial coenzyme cNAD is 75% (FIG. 9A). After 336 hours storage at 50° C. the residual activity of the enzyme stabilized with NAD is now only about 1%; a residual activity of still about 70% is observed for the enzyme stored in the presence of cNAD. The corresponding SDS gels also show a change in the GlucDH bands in the presence of the native coenzyme NAD: new bands are seen at higher molar masses and there is a shift in the 30 kDa band.

[5] = target: T2, alcohol dehydrogenase (ADH) (Saccharomyces cerevisiae, UniProt P00330); test: Storage of alcohol dehydrogenase detection solution with NAD or cNAD (Tables 1 and 2); format: biochemical, yeast
T2 sequence (P00330 1-348): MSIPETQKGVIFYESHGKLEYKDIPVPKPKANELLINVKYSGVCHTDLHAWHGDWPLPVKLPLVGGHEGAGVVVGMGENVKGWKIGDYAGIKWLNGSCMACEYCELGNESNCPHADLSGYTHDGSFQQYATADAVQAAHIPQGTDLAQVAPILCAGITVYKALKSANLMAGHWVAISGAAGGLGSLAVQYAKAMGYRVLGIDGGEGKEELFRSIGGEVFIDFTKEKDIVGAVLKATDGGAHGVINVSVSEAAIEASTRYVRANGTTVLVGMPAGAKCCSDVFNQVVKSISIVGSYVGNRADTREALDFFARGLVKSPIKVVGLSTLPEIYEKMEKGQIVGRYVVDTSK
Procedure: cNAD or NAD was added to a detection solution containing alcohol dehydrogenase. These mixtures were stored at 2-8° C. and at 35° C. Subsequently, the stability of alcohol dehydrogenase (ADH) was checked at regular intervals and the residual activity of the enzyme was determined.
If alcohol dehydrogenase is stored together with native NAD or with cNAD for several months at 2-8° C. in a refrigerator, then one observes in the case of […] a considerable decrease in enzyme activity over the entire storage period. Whereas the difference after 2 weeks storage is still slight, there is an approximately 20% higher residual activity of alcohol dehydrogenase after 12 months storage in the presence of 16 mM cNAD compared to a corresponding solution containing 16 mM NAD as the coenzyme.
Accordingly, the residual activity of alcohol dehydrogenase can be increased somewhat in samples that have been stored for 2 weeks at 2-8° C. by increasing the concentration of cNAD.

[6] = target: D-lactate dehydrogenase (Lactobacillus delbrueckii subsp. bulgaricus, UniProt P26297); test: DSC of coenzyme binding; settings: 3.8 mM ligand; 0.1M Tris buffer, pH 7.5
[7] = 16 mmol/l coenzyme, initial value

## NC(=O)c1ccc[n+]([C@@H]2C[C@H](COP(=O)([O-])OP(=O)(O)OC[C@H]3O[C@@H](n4cnc5c(N)ncnc54)[C@H](O)[C@@H]3O)[C@@H](O)[C@H]2O)c1 [carbaNAD]
[1]; after 5 weeks at 32° C. and 85% air humidity
  function curve of GlucDH: still lies within the set of curves of the previous measurements
[1]; after 5 weeks at 32° C. and 85% relative air humidity
  kinetics curves of GlucDH: remains virtually unchanged
[1]; up to 5 weeks at 32° C. and 85% air humidity
  dry blank value before application of a blood sample: does not occur
[2]
  residual activity of GlucDH-mut1: about 70%
[3]
  residual activity of GlucDH-mut2: about 50%
[4]; 95 hours at 50° C.
  residual activity of glucose dehydrogenase: 75%
[4]; 336 hours at 50° C.
  residual activity of glucose dehydrogenase: about 70%
[5]; 16 mmol/l coenzyme, 2 weeks at 2-8° C.
  ADH activity after 2 weeks at 2-8° C.: 100.7 % of initial value
[5]; 16 mmol/l coenzyme, 3 months at 2-8° C.
  ADH activity after 3 months at 2-8° C.: 91.3 % of initial value
[5]; 16 mmol/l coenzyme, 7.5 months at 2-8° C.
  ADH activity after 7.5 months at 2-8° C.: 95.6 % of initial value
[5]; 16 mmol/l coenzyme, 10 months at 2-8° C.
  ADH activity after 10 months at 2-8° C.: 88.2 % of initial value
[5]; 16 mmol/l coenzyme, 12 months at 2-8° C.
  ADH activity after 12 months at 2-8° C.: 83.8 % of initial value
[5]; [7]
  ADH activity % of weighed amount (initial value): 71.9 % of weighed amount
  ADH activity U/ml (initial value): 120.2 U/ml
[5]; 2 weeks at 35° C., 15 mM cNAD
  higher residual activity of alcohol dehydrogenase compared to 0.5 mM cNAD: approximately 45%
[5]; 12 months at 2-8° C., 16 mM cNAD
  higher residual activity of alcohol dehydrogenase compared to 16 mM NAD solution: approximately 20%
[5]; Sample 1, pH 7.85, 0.5 mM cNAD
  ADH activity % of weighed amount (initial value): 73.7 % of weighed amount
  ADH activity U/ml (initial value): 123.1 U/ml
  ADH activity after 2 weeks at 2-8° C.: 93.8 % of initial value
  ADH activity after 2 weeks at 35° C.: 31.1 % of initial value
[5]; Sample 2, pH 7.85, 1 mM cNAD
  ADH activity % of weighed amount (initial value): 75.3 % of weighed amount
  ADH activity U/ml (initial value): 125.8 U/ml
  ADH activity after 2 weeks at 2-8° C.: 97.7 % of initial value
  ADH activity after 2 weeks at 35° C.: 45.5 % of initial value
[5]; Sample 3, pH 7.85, 5 mM cNAD
  ADH activity % of weighed amount (initial value): 74.9 % of weighed amount
  ADH activity U/ml (initial value): 125.1 U/ml
  ADH activity after 2 weeks at 2-8° C.: 101.1 % of initial value
  ADH activity after 2 weeks at 35° C.: 74.1 % of initial value
[5]; Sample 4, pH 7.85, 15 mM cNAD
  ADH activity % of weighed amount (initial value): 74.1 % of weighed amount
  ADH activity U/ml (initial value): 123.7 U/ml
  ADH activity after 2 weeks at 2-8° C.: 104.0 % of initial value
  ADH activity after 2 weeks at 35° C.: 77.6 % of initial value
[6]
  TM: 59.1 °C
  ΔHcal: 79.5 kJ/mol
